According to the NIST ThermoML archive (doi:10.1016/j.jct.2007.07.005):

Assay: xn = mol fraction of the nth substance listed
Details: Fluid (supercritical or subcritical phases), vibrating tube

CCCCCO [pentan-1-ol] + O=C=O
Details	mass density [kg/m3]
323.11 K, 21027 kPa, x2 = 0.1347	813.66
323.11 K, 21051 kPa, x2 = 0.6054	847.84
323.11 K, 22019 kPa, x2 = 0.6054	849.47
323.11 K, 22027 kPa, x2 = 0.1347	814.42
323.11 K, 23017 kPa, x2 = 0.1347	815.16
323.11 K, 23023 kPa, x2 = 0.6054	851.13
323.11 K, 24022 kPa, x2 = 0.1347	815.93
323.11 K, 24036 kPa, x2 = 0.6054	852.76
323.11 K, 24999 kPa, x2 = 0.1347	816.68
323.11 K, 25069 kPa, x2 = 0.6054	854.41
332.79 K, 493 kPa, x2 = 0	784.29
332.79 K, 1014 kPa, x2 = 0	784.76
332.79 K, 2006 kPa, x2 = 0	785.61
332.79 K, 3025 kPa, x2 = 0	786.48
332.79 K, 4011 kPa, x2 = 0	787.28
332.79 K, 5020 kPa, x2 = 0	788.11
332.79 K, 6003 kPa, x2 = 0	788.91
332.79 K, 6997 kPa, x2 = 0	789.73
332.79 K, 8009 kPa, x2 = 0	790.54
332.79 K, 8995 kPa, x2 = 0	791.31
332.79 K, 9996 kPa, x2 = 0	792.12
332.79 K, 11018 kPa, x2 = 0	792.9
332.79 K, 11995 kPa, x2 = 0	793.66
332.79 K, 13023 kPa, x2 = 0	794.45
332.79 K, 13999 kPa, x2 = 0	795.19
332.79 K, 15010 kPa, x2 = 0	795.95
332.79 K, 16028 kPa, x2 = 0	796.68
332.79 K, 17003 kPa, x2 = 0	797.41
332.79 K, 18040 kPa, x2 = 0	798.14
332.79 K, 19004 kPa, x2 = 0	798.84
332.79 K, 20035 kPa, x2 = 0	799.59
332.79 K, 21024 kPa, x2 = 0	800.29
332.79 K, 21993 kPa, x2 = 0	800.97
332.79 K, 23039 kPa, x2 = 0	801.71
332.79 K, 24015 kPa, x2 = 0	802.4
332.79 K, 25022 kPa, x2 = 0	803.12
332.93 K, 8022 kPa, x2 = 0.3624	806.47
332.93 K, 9003 kPa, x2 = 0.3624	807.66
332.93 K, 9033 kPa, x2 = 0.4651	808.88
332.93 K, 10018 kPa, x2 = 0.3624	808.86
332.93 K, 10027 kPa, x2 = 0.4651	810.57
332.93 K, 10989 kPa, x2 = 0.3624	809.94
332.93 K, 11000 kPa, x2 = 0.4651	812.22
332.93 K, 12008 kPa, x2 = 0.3624	811.14
332.93 K, 12019 kPa, x2 = 0.4651	813.92
332.93 K, 12032 kPa, x2 = 0.8067	770.68
332.93 K, 12989 kPa, x2 = 0.9757	593.78
332.93 K, 12995 kPa, x2 = 0.8067	780.67
332.93 K, 13015 kPa, x2 = 0.3624	812.22
332.93 K, 13017 kPa, x2 = 0.4651	815.52
332.93 K, 13981 kPa, x2 = 0.3624	813.29
332.93 K, 13992 kPa, x2 = 0.9757	633.72
332.93 K, 14013 kPa, x2 = 0.8067	788.98
332.93 K, 14027 kPa, x2 = 0.4651	817.14
332.93 K, 15014 kPa, x2 = 0.9757	664.21
332.93 K, 15021 kPa, x2 = 0.3624	814.39
332.93 K, 15023 kPa, x2 = 0.4651	818.68
332.93 K, 15025 kPa, x2 = 0.8067	796.09
332.93 K, 15992 kPa, x2 = 0.3624	815.41
332.93 K, 16007 kPa, x2 = 0.4651	820.18
332.93 K, 16011 kPa, x2 = 0.9757	687.95
332.93 K, 16021 kPa, x2 = 0.8067	802.3
332.93 K, 17012 kPa, x2 = 0.3624	816.44
332.93 K, 17014 kPa, x2 = 0.4651	821.68
332.93 K, 17021 kPa, x2 = 0.8067	808.04
332.93 K, 17022 kPa, x2 = 0.9757	707.96
332.93 K, 18010 kPa, x2 = 0.3624	817.48
332.93 K, 18021 kPa, x2 = 0.8067	813.35
332.93 K, 18021 kPa, x2 = 0.9757	724.84
332.93 K, 18040 kPa, x2 = 0.4651	823.21
332.93 K, 19008 kPa, x2 = 0.9757	739.5
332.93 K, 19011 kPa, x2 = 0.8067	818.27
332.93 K, 19015 kPa, x2 = 0.4651	824.63
332.93 K, 19032 kPa, x2 = 0.3624	818.5
332.93 K, 19997 kPa, x2 = 0.3624	819.44
332.93 K, 20022 kPa, x2 = 0.8067	822.95
332.93 K, 20026 kPa, x2 = 0.4651	826.05
332.93 K, 20041 kPa, x2 = 0.9757	753.18
332.93 K, 21019 kPa, x2 = 0.4651	827.43
332.93 K, 21021 kPa, x2 = 0.9757	764.86
332.93 K, 21024 kPa, x2 = 0.3624	820.43
332.93 K, 21029 kPa, x2 = 0.8067	827.4
332.93 K, 21989 kPa, x2 = 0.8067	831.41
332.93 K, 21997 kPa, x2 = 0.4651	828.79
332.93 K, 22013 kPa, x2 = 0.3624	821.46
332.93 K, 22013 kPa, x2 = 0.9757	775.63
332.93 K, 23008 kPa, x2 = 0.8067	835.47
332.93 K, 23021 kPa, x2 = 0.3624	822.42
332.93 K, 23031 kPa, x2 = 0.4651	830.22
332.93 K, 23997 kPa, x2 = 0.3624	823.36
332.93 K, 24024 kPa, x2 = 0.4651	831.62
332.93 K, 24893 kPa, x2 = 0.3624	824.24
332.95 K, 13016 kPa, x2 = 0.8573	754.58
332.95 K, 13026 kPa, x2 = 0.9216	704.11
332.95 K, 14021 kPa, x2 = 0.9216	723.65
332.95 K, 14042 kPa, x2 = 0.8573	766.56
332.95 K, 15016 kPa, x2 = 0.9216	739.26
332.95 K, 15028 kPa, x2 = 0.8573	776.2
332.95 K, 15984 kPa, x2 = 0.9216	752.12
332.95 K, 16013 kPa, x2 = 0.8573	784.6
332.95 K, 17014 kPa, x2 = 0.8573	792.22
332.95 K, 17039 kPa, x2 = 0.9216	764.27
332.95 K, 18011 kPa, x2 = 0.8573	799.17
332.95 K, 18019 kPa, x2 = 0.9216	774.24
332.95 K, 19005 kPa, x2 = 0.9216	783.37
332.95 K, 19027 kPa, x2 = 0.8573	805.67
332.95 K, 20006 kPa, x2 = 0.8573	811.5
332.95 K, 20008 kPa, x2 = 0.9216	791.89
332.95 K, 20996 kPa, x2 = 0.8573	817.04
332.95 K, 21037 kPa, x2 = 0.9216	799.89
332.95 K, 21691 kPa, x2 = 0.9216	804.69
332.95 K, 22056 kPa, x2 = 0.8573	822.62
332.95 K, 23032 kPa, x2 = 0.8573	827.46
332.95 K, 24010 kPa, x2 = 0.8573	832.11
332.96 K, 3007 kPa, x2 = 0.0816	789.68
332.96 K, 4028 kPa, x2 = 0.0816	790.6
332.96 K, 4991 kPa, x2 = 0.0816	791.47
332.96 K, 5998 kPa, x2 = 0.0816	792.36
332.96 K, 7025 kPa, x2 = 0.0816	793.27
332.96 K, 7995 kPa, x2 = 0.0816	794.13
332.96 K, 9031 kPa, x2 = 0.0816	795.01
332.96 K, 10005 kPa, x2 = 0.0816	795.83
332.96 K, 11008 kPa, x2 = 0.0816	796.67
332.96 K, 12026 kPa, x2 = 0.0816	797.53
